Test results as given in patent US20220323406A1, “METHODS AND COMPOSITIONS FOR DIFFERENTIATING STEM CELLS” (Massachusetts Institute of Technology, priority 2019, published 2022).
Where a name gives a salt, the structure may show the parent alone.

Key:
[1] = test system: ENR+CD organoids (ISC to Paneth cell differentiation); assay: Primary screen: basal (non-stimulated) lysozyme secretion LYZ.NS, 2.5-D 384-well ENR+CD organoid differentiation; format: cell-based, mouse
Description: (§1) High-throughput screening.

[2] = test system: ENR+CD organoids (ISC to Paneth cell differentiation); assay: Primary screen: CCh-stimulated lysozyme secretion LYZ.S, 2.5-D 384-well ENR+CD organoid differentiation; format: cell-based, mouse; conditions: primary screen
Description: as §1

ENR+CD organoids = assay: Primary screen: ATP (CellTiter-Glo 3D, CTG) cell number/viability, 2.5-D 384-well ENR+CD organoids;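 also: compounds given at plating and again on day 3 over a 6-day differentiation from ENR+CV stem-cell-enriched precursors, ATP measured on day 6, plate median as control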
[3] = primary screen, dose 0.08 uM, standard z score
[4] = primary screen, dose 0.40 uM, standard z score
[5] = primary screen, dose 2.00 uM, standard z score
[6] = primary screen, dose 10.00 uM, standard z score
[7] = primary screen; dose 0.08 uM; FC vs plate median
[8] = primary screen; dose 0.40 uM; FC vs plate median
[9] = primary screen; dose 2.00 uM; FC vs plate median
[10] = primary screen; dose 10.00 uM; FC vs plate median
[11] = dose 0.08 uM, FC vs plate median
[12] = dose 0.40 uM, FC vs plate median
[13] = dose 2.00 uM, FC vs plate median
[14] = dose 10.00 uM, FC vs plate median
[15] = primary screen, dose 0.08 uM, FC relative to plate median
[16] = primary screen, dose 0.40 uM, FC relative to plate median
[17] = primary screen, dose 2.00 uM, FC relative to plate median
[18] = primary screen, dose 10.00 uM, FC relative to plate median
[19] = dose 0.08 uM, FC relative to plate median
[20] = dose 0.40 uM, FC relative to plate median
[21] = dose 2.00 uM, FC relative to plate median
[22] = dose 10.00 uM, FC relative to plate median
[23] = primary screen, standard z score, dose 0.08 uM
[24] = primary screen, standard z score, dose 0.40 uM
[25] = primary screen, standard z score, dose 2.00 uM
[26] = primary screen, standard z score, dose 10.00 uM

SMILES | Z.LYZ.NS [1, 3] | Z.LYZ.NS [1, 4] | Z.LYZ.NS [1, 5] | Z.LYZ.NS [1, 6] | Dose.FC.LYZ.NS ([1]; primary screen, dose 0.08 uM) [log2 fold change] | Z.LYZ.NS (standard z score) ([1]; primary screen, dose 0.08 uM) | Dose.FC.LYZ.NS ([1]; primary screen, dose 0.40 uM) [log2 fold change] | Z.LYZ.NS (standard z score) ([1]; primary screen, dose 0.40 uM) | Dose.FC.LYZ.NS ([1]; primary screen, dose 2.00 uM) [log2 fold change] | Z.LYZ.NS (standard z score) ([1]; primary screen, dose 2.00 uM) | Dose.FC.LYZ.NS ([1]; primary screen, dose 10.00 uM) [log2 fold change] | Z.LYZ.NS (standard z score) ([1]; primary screen, dose 10.00 uM) | Dose.FC.LYZ.S ([2]; dose 0.08 uM) [log2 fold change] | Dose.FC.LYZ.S ([2]; dose 0.40 uM) [log2 fold change] | Dose.FC.LYZ.S ([2]; dose 2.00 uM) [log2 fold change] | Dose.FC.LYZ.S ([2]; dose 10.00 uM) [log2 fold change] | Dose.FC.CTG (ENR+CD organoids; primary screen, dose 0.08 uM) [log2 fold change] | Dose.FC.CTG (ENR+CD organoids; primary screen, dose 0.40 uM) [log2 fold change] | Dose.FC.CTG (ENR+CD organoids; primary screen, dose 2.00 uM) [log2 fold change] | Dose.FC.CTG (ENR+CD organoids; primary screen, dose 10.00 uM) [log2 fold change] | other results
CCc1c(C(=O)NCCc2ccc(N3CCCCC3)cc2)[nH]c2ccc(Cl)cc12 [Org 27569] | 1.060 | 0.445 | 0.683 | 0.248 | – | – | – | – | – | – | – | – | – | – | – | – | – | – | – | – | Dose.FC.LYZ.NS [1, 7]: 0.122 log2 fold change; Dose.FC.LYZ.NS [1, 8]: 0.051 log2 fold change; Dose.FC.LYZ.NS [1, 9]: 0.078 log2 fold change; Dose.FC.LYZ.NS [1, 10]: 0.029 log2 fold change; Dose.FC.LYZ.S [2, 11]: 0.174 log2 fold change; Dose.FC.LYZ.S [2, 12]: 0.032 log2 fold change; Dose.FC.LYZ.S [2, 13]: 0.059 log2 fold change; Dose.FC.LYZ.S [2, 14]: 0.001 log2 fold change; Z.CTG (ENR+CD organoids; [3]): 0.663; Z.CTG (ENR+CD organoids; [4]): 0.173; Z.CTG (ENR+CD organoids; [5]): 0.865; Z.CTG (ENR+CD organoids; [6]): 0.646; Dose.FC.CTG (ENR+CD organoids; [7]): 0.278 log2 fold change; Dose.FC.CTG (ENR+CD organoids; [8]): 0.072 log2 fold change; Dose.FC.CTG (ENR+CD organoids; [9]): 0.362 log2 fold change; Dose.FC.CTG (ENR+CD organoids; [10]): 0.270 log2 fold change
COc1nc(C)cnc1NS(=O)(=O)c1cccnc1-c1ccc(-c2nnco2)cc1 [Zibotentan (ZD4054)] | – | – | – | – | 0.094 | 0.820 | 0.054 | 0.474 | −0.003 | −0.029 | 0.101 | 0.877 | 0.168 | 0.130 | −0.038 | 0.050 | 0.104 | −0.009 | −0.768 | −0.001 | Z.CTG (standard z score) (ENR+CD organoids; primary screen, dose 0.08 uM): 0.249; Z.CTG (standard z score) (ENR+CD organoids; primary screen, dose 0.40 uM): −0.022; Z.CTG (standard z score) (ENR+CD organoids; primary screen, dose 2.00 uM): −1.834; Z.CTG (standard z score) (ENR+CD organoids; primary screen, dose 10.00 uM): −0.003
C#CCN[C@@H]1CCc2ccccc21 [Rasagiline Mesylate] | 0.631 | 0.117 | 0.417 | −0.294 | – | – | – | – | – | – | – | – | – | – | – | – | – | – | – | – | Dose.FC.LYZ.NS [1, 15]: 0.072 log2 fold change; Dose.FC.LYZ.NS [1, 16]: 0.013 log2 fold change; Dose.FC.LYZ.NS [1, 17]: 0.048 log2 fold change; Dose.FC.LYZ.NS [1, 18]: −0.034 log2 fold change; Dose.FC.LYZ.S [2, 19]: 0.140 log2 fold change; Dose.FC.LYZ.S [2, 20]: 0.077 log2 fold change; Dose.FC.LYZ.S [2, 21]: 0.014 log2 fold change; Dose.FC.LYZ.S [2, 22]: 0.026 log2 fold change; Dose.FC.CTG (ENR+CD organoids; [15]): 0.154 log2 fold change; Dose.FC.CTG (ENR+CD organoids; [16]): 0.103 log2 fold change; Dose.FC.CTG (ENR+CD organoids; [17]): 0.041 log2 fold change; Dose.FC.CTG (ENR+CD organoids; [18]): 0.104 log2 fold change
CC(C)(F)C[C@H](N[C@@H](c1ccc(-c2ccc(S(C)(=O)=O)cc2)cc1)C(F)(F)F)C(=O)NC1(C#N)CC1 [Odanacatib (MK-0822)] | 0.752 | 1.409 | 0.212 | −0.307 | – | – | – | – | – | – | – | – | – | – | – | – | – | – | – | – | Dose.FC.LYZ.NS [1, 7]: 0.086 log2 fold change; Dose.FC.LYZ.NS [1, 8]: 0.162 log2 fold change; Dose.FC.LYZ.NS [1, 9]: 0.024 log2 fold change; Dose.FC.LYZ.NS [1, 10]: −0.035 log2 fold change; Dose.FC.LYZ.S [2, 11]: 0.091 log2 fold change; Dose.FC.LYZ.S [2, 12]: 0.170 log2 fold change; Dose.FC.LYZ.S [2, 13]: 0.036 log2 fold change; Dose.FC.LYZ.S [2, 14]: −0.074 log2 fold change; Z.CTG (ENR+CD organoids; [3]): 0.285; Z.CTG (ENR+CD organoids; [4]): 0.496; Z.CTG (ENR+CD organoids; [5]): −0.020; Z.CTG (ENR+CD organoids; [6]): 0.015; Dose.FC.CTG (ENR+CD organoids; [7]): 0.119 log2 fold change; Dose.FC.CTG (ENR+CD organoids; [8]): 0.208 log2 fold change; Dose.FC.CTG (ENR+CD organoids; [9]): −0.008 log2 fold change; Dose.FC.CTG (ENR+CD organoids; [10]): 0.006 log2 fold change
Cc1noc(-c2ccc(CSCCC(=O)O)cc2)c1NC(=O)OC(C)c1ccccc1Cl (centres unmarked) [Ki16425] | – | – | – | – | – | 0.005 | – | 1.017 | – | −0.069 | – | −0.327 | – | – | – | – | – | – | – | – | Dose.FC.LYZ.NS (log2 fold change) ([1]; primary screen, dose 0.08 uM): 0.001; Dose.FC.LYZ.NS (log2 fold change) ([1]; primary screen, dose 0.40 uM): 0.117; Dose.FC.LYZ.NS (log2 fold change) ([1]; primary screen, dose 2.00 uM): −0.008; Dose.FC.LYZ.NS (log2 fold change) ([1]; primary screen, dose 10.00 uM): −0.038; Dose.FC.LYZ.S (log2 fold change) ([2]; dose 0.08 uM): 0.022; Dose.FC.LYZ.S (log2 fold change) ([2]; dose 0.40 uM): 0.114; Dose.FC.LYZ.S (log2 fold change) ([2]; dose 2.00 uM): −0.021; Dose.FC.LYZ.S (log2 fold change) ([2]; dose 10.00 uM): −0.071; Dose.FC.CTG (log2 fold change) (ENR+CD organoids; primary screen, dose 0.08 uM): −0.051; Z.CTG (standard z score) (ENR+CD organoids; primary screen, dose 0.08 uM): −0.121; Dose.FC.CTG (log2 fold change) (ENR+CD organoids; primary screen, dose 0.40 uM): −0.002; Z.CTG (standard z score) (ENR+CD organoids; primary screen, dose 0.40 uM): −0.005; Dose.FC.CTG (log2 fold change) (ENR+CD organoids; primary screen, dose 2.00 uM): −0.078; Z.CTG (standard z score) (ENR+CD organoids; primary screen, dose 2.00 uM): −0.185; Dose.FC.CTG (log2 fold change) (ENR+CD organoids; primary screen, dose 10.00 uM): −0.165; Z.CTG (standard z score) (ENR+CD organoids; primary screen, dose 10.00 uM): −0.394
c1ccc(CC2=NCCN2)cc1 [Tolazoline HCl] | – | – | – | – | 0.144 | 1.255 | 0.084 | 0.728 | 0.088 | 0.765 | −0.049 | −0.424 | 0.169 | 0.128 | 0.069 | −0.063 | 0.245 | 0.222 | −0.051 | −0.208 | –
c1ccc(CNc2nc(NCc3ccccc3)c3ccccc3n2)cc1 [DBeQ] | – | – | – | – | 0.097 | – | 0.064 | – | −0.048 | – | −0.296 | – | 0.045 | 0.210 | −0.103 | −0.423 | 0.119 | −0.013 | 0.004 | −1.133 | Z.LYZ.NS [1, 23]: 0.844; Z.LYZ.NS [1, 24]: 0.558; Z.LYZ.NS [1, 25]: −0.414; Z.LYZ.NS [1, 26]: −2.577; Z.CTG (ENR+CD organoids; [23]): 0.285; Z.CTG (ENR+CD organoids; [24]): −0.031; Z.CTG (ENR+CD organoids; [25]): 0.010; Z.CTG (ENR+CD organoids; [26]): −2.706
Oc1ncnc2[nH]ncc12 [Allopurinol] | – | – | – | – | 0.019 | 0.168 | −0.036 | −0.314 | −0.004 | −0.036 | −0.051 | −0.442 | 0.026 | −0.086 | −0.064 | −0.119 | 0.212 | −0.098 | −0.162 | −0.454 | –
C[C@]1(c2nc3c(C(N)=O)cccc3[nH]2)CCCN1 [Veliparib (ABT-888)] | – | – | – | – | 0.075 | 0.649 | 0.139 | 1.211 | 0.023 | 0.203 | −0.062 | −0.537 | 0.105 | 0.179 | −0.016 | −0.136 | 0.128 | 0.055 | −0.024 | −0.218 | Z.CTG (standard z score) (ENR+CD organoids; primary screen, dose 0.08 uM): 0.307; Z.CTG (standard z score) (ENR+CD organoids; primary screen, dose 0.40 uM): 0.132; Z.CTG (standard z score) (ENR+CD organoids; primary screen, dose 2.00 uM): −0.057; Z.CTG (standard z score) (ENR+CD organoids; primary screen, dose 10.00 uM): −0.521
Cc1cc(Nc2ccc(NC(=O)c3ccc(Nc4ccnc5ccccc45)cc3)cc2)nc(N)n1 [SGI-1027] | 0.528 | 0.735 | 1.123 | −0.046 | – | – | – | – | – | – | – | – | – | – | – | – | – | – | – | – | Dose.FC.LYZ.NS [1, 15]: 0.061 log2 fold change; Dose.FC.LYZ.NS [1, 16]: 0.084 log2 fold change; Dose.FC.LYZ.NS [1, 17]: 0.129 log2 fold change; Dose.FC.LYZ.NS [1, 18]: −0.005 log2 fold change; Dose.FC.LYZ.S [2, 19]: 0.060 log2 fold change; Dose.FC.LYZ.S [2, 20]: 0.145 log2 fold change; Dose.FC.LYZ.S [2, 21]: 0.094 log2 fold change; Dose.FC.LYZ.S [2, 22]: 0.018 log2 fold change; Dose.FC.CTG (ENR+CD organoids; [15]): 0.244 log2 fold change; Z.CTG (ENR+CD organoids; [3]): 0.583; Dose.FC.CTG (ENR+CD organoids; [16]): 0.298 log2 fold change; Z.CTG (ENR+CD organoids; [4]): 0.712; Dose.FC.CTG (ENR+CD organoids; [17]): 0.172 log2 fold change; Z.CTG (ENR+CD organoids; [5]): 0.412; Dose.FC.CTG (ENR+CD organoids; [18]): 0.052 log2 fold change; Z.CTG (ENR+CD organoids; [6]): 0.125
